The structures appear in SMILES notation.

One compound from patent US20250091994A1, “RAS/RAF BINDING INHIBITOR COMPOUND” (NATIONAL UNIVERSITY CORPORATION KOBE UNIVERSITY, priority 2021, published 2025) can be followed below.

Type in all cases: cell-based
In test [1] the test system is phosphorylated MEK (pMEK) in HL60 cells. Nature of the test: Ras-Raf signaling inhibition at culture cell level, pMEK. Particulars: Homo sapiens, HL-60; HL60 (N-RasQ61L), 1 μM test compound, 3 hours. How it is done: (§1) The Ras-Raf signaling inhibitory activity of the compound of the present invention at a culture cell level was evaluated by the following method.
(§2) The HL60 cells described in Test Example 2 suspended in a medium containing 0.5% (v/v) FBS with each compound solution (final DMSO concentration: 1%), were seeded on a 12-well plate (2 to 4×10^5 cells/well), and the resulting mixture was then cultured at 37° C. in the presence of 5% CO2 for 3 hours.
(§3) After completion of the cell culture, proteins were extracted from the cells, using RIPA Buffer (Nacalai Tesque) containing a mixture of protease inhibitors and phosphatase inhibitors. An equivalent amount of protein was separated by standard SDS-PAGE and was then transferred onto a PVDF membrane. In order to detect the activation (phosphorylation) of MEK and ERK, downstream molecules of the Ras-Raf signaling pathway, the membrane was probed with 1000-fold diluted primary antibodies {phosphorylated MEK (pMEK: #9121), phosphorylated ERK (pERK: #9101), total MEK (tMEK: #9122), and total ERK (tERK: 9102); all from Cell signaling}, and then with a 1000-fold diluted horseradish peroxidase-labeled secondary antibody against rabbit immunoglobulin G. The immunoreactive signals were colored with EzWestLumi One (ATTO), and were then detected by Fusion FX (Vilber). Signal intensity was quantified by pixel counting. Inhibition by the test compound was determined according to the following equation: […]

The test system of test [2] is phosphorylated ERK (pERK) in HL60 cells. Description: Ras-Raf signaling inhibition at culture cell level, pERK. As to conditions: Homo sapiens, HL-60; HL60 (N-RasQ61L), 1 μM test compound, 3 hours. On the procedure: as §1, §2, §3
Test [3] deals with acute lymphoblastic leukemia cells CCRF-CEM (K-RasG12D). Description: Cell growth inhibition, suspension cells CCRF-CEM. As to conditions: Homo sapiens, 1 μM, 72 hours, read-out: CCRF-CEM (KRasG12D) % inhibition at 1 μM. The procedure, abridged: (§4)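 Suspension cells, 2 to 4×10^4 per well, cultured with compound in medium with 0.5% FBS (1% DMSO final) for 72 h at 37° C, 5% CO2. Viable cells counted with Cell Counting Reagent; inhibition calculated relative to controls.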

The test system of test [4] is Vemurafenib-resistant malignant melanoma cells HT 144R (BRafV600E). Nature of the test: Cell growth inhibition, drug-resistant malignant melanoma HT144R. Particulars: Homo sapiens, in the presence of 1 μM PLX (Vemurafenib), 72 hours. How it is done: (§5) The human malignant melanoma cell lines A375 and HT 144, each having BRafV600E mutation, were cultured in a medium containing 10% FBS at 37° C. in the presence of 5% CO2. At the time point in which the cells became confluent, 1 μM Vemurafenib, a BRaf inhibitor, was added to the medium, and the cells were then cultured in the presence of Vemurafenib for 1 month or more (during which the medium was exchanged every 1 week), so as to acquire Vemurafenib-resistant malignant melanoma cells A375R and HT 144R. The resulting resistant cells were suspended in a medium containing 10% FBS, and then seeded on a 96-well plate to an amount of 1 to 2×10^4 cells/well. The cells were cultured at 37° C. in the presence of 5% CO2 overnight. Thereafter, the medium was exchanged with a medium containing 0.5% FBS, to which each compound solution (final DMSO concentration: 1%) and 1 μM Vemurafenib had been added, and the cells were then cultured at 37° C. in the presence of 5% CO2 for 72 hours.
(§6) Thereafter, the number of viable cells was measured using Cell Counting Reagent (Nacalai Tesque) in accordance with the manufacturer's instructions. Inhibition by the test compound was determined according to the following equation: […]
(§7) Hereafter, Inhibition (%) by 3.3 μM compound is shown.

Test [5] concerns small cell lung cancer cells SHP77 (K-RasG12V). Description: Cell growth inhibition, suspension cells SHP77. Particulars: Homo sapiens, 1 μM, 72 hours, read-out: SHP77 (KRasG12V) % inhibition at 1 μM. The method, boiled down: as §4
Test [6] relates to Vemurafenib-resistant malignant melanoma cells A375R (BRafV600E). Nature of the test: Cell growth inhibition, drug-resistant malignant melanoma A375R. Particulars: Homo sapiens, in the presence of 1 μM PLX (Vemurafenib), 72 hours. On the procedure:
as §5, §6, §7

Test [7] has as its system large bowel cancer cells SW480 (K-RasG12V). Nature of the test: Cell growth inhibition, adherent cells SW480. Particulars: Homo sapiens, 72 hours, read-out: SW480 (KRasG12V) % inhibition at 10 μM. How it is done: The cell growth inhibitory activity of the compound of the present invention on human culture cells having active-type mutation in Ras was evaluated by the below-mentioned method using suspension cancer cells {acute lymphoblastic leukemia cells CCRF-CEM (K-RasG12D), promyelocytic leukemia cells HL60 (N-RasQ61L), acute lymphoblastic leukemia cells MOLT4 (N-RasG12C), and small cell lung cancer cells SHP77 (K-RasG12V)} and adherent cancer cells {large bowel cancer cells SW480 (K-RasG12V) and large bowel cancer cell SW620 (K-RasG12V)}.
(Case of adherent cells) The cells suspended in a medium containing 10% FBS (1 to 2×10^4 cells/well) were seeded on a 96-well plate, and were then cultured at 37° C. in the presence of […]. Thereafter, the medium was exchanged with a medium containing […], to which each compound solution (final DMSO concentration: […]) had been added, and the cells were then cultured at 37° C. in the presence of […] for 72 hours.
as §6

Test [8] relates to promyelocytic leukemia cells HL60 (N-RasQ61L). Description: Cell growth inhibition, suspension cells HL60. As to conditions: Homo sapiens, HL-60; 1 μM, 72 hours; read-out: HL-60 (NRasQ61L) % inhibition at 1 μM. The procedure, abridged: as §4

On to `CC(=O)N1/C(=C\c2nc3cc(C(=O)N4CCOCC4)ccc3s2)C(=O)c2ccccc21` [Example 47, (Z)-1-acetyl-2-((5-(morpholine-4-carbonyl)benzo [d]thiazol-2-yl)-methylene)-indolin-3-one], for which the inhibition – broadly, the share of the control response that was lost under treatment – at 1 µM was found to be 88% in test [1]; 94% in test [2]; 74% in test [3]; 61% in test [5]; 89% in test [8]. The inhibition at 3.3 µM was found to be 92% in test [4] and 90% in test [6]. In addition, the inhibition at 10 µM in test [7] was found to be 51%.
